The values that follow come from patent US20090226367A1, “COMPOSITIONS COMPRISING AN ANTI-CA125 ANTIBODY AND A CYTOTOXIC COMPOUND AND THEIR USE FOR THE TREATMENT OF CANCER” (priority 2005, published 2009).

The conditions of series [1]: nude mice; cited from earlier work.
For series [2], the system named is OVCAR-3 subcutaneous tumors. The experiment in a line: subcutaneous OVCAR-3 xenograft model, tumor growth. The class given is in vivo, NCr nu/nu mice. The settings on record: for Tumor Regression (number of animals): groups of 8 mice. Here is the method:
Model of Human Cancer: A subcutaneous OVCAR-3 xenograft model was used.
Animals: Female NCr nu/nu (“nude”) mice (Taconic Farms, Germantown, N.Y.) 6-7 weeks old were used for all studies. All animals were housed in sterile micro-isolators, and were given autoclaved food and water ad libitum.
OVCAR-3 cells were serially propagated in vivo 3 times within the peritoneal cavities of NCr nu/nu mice, followed by subcutaneous implantation in the flank of the mice. […] Mice were injected with 0.2 ml volume of the cell suspension for a final dose of 3×10^6 cells. Beginning approximately 10 days post-implantation, palpable tumors were measured with electronic calipers (Fowler Instruments, Newton, Mass.) across two perpendicular dimensions. Mice were randomly sorted into groups of eight based on tumor volume. […] Tumor measurements and observations were recorded twice a week. Tumor volume was calculated using the standard formula (Length×Width^2)×0.5.
Control groups consisted of mice injected with 0.9% sodium chloride alone. […] Tumors were measured two times per week. Mice were sacrificed when the tumor volume was greater than 10% of their body weight.
Tumor volumes were compared by Mann-Whitney analysis using Prizm software (GraphPad Software, Inc.). Regression was defined as beginning when a tumor reached <50% of its starting volume and ending when the tumor reached >50% of its initial volume. Partial regression (PR) was defined as when a tumor decreased by 50% or more in volume for at least 7 days, and then later regrew. Complete regression (CR) was defined as when a tumor disappeared for at least 7 days.

Where [3] appears, read: paclitaxel 10 mg/kg weekly for three weeks (q3d7).

For `CC(=O)O[C@H]1C(=O)[C@@]2(C)[C@H]([C@H](OC(=O)c3ccccc3)[C@]3(O)C[C@H](OC(=O)[C@H](O)[C@@H](NC(=O)c4ccccc4)c4ccccc4)C(C)=C1C3(C)C)[C@]1(OC(C)=O)CO[C@@H]1C[C@@H]2O` [Paclitaxel, paclitaxel], in series [1], the MTD is > 30 mg/kg. The “% T/C” value was 58% in series [2] (paclitaxel 10 mg/kg single dose (day 0), day 40, relative to saline control) and 29% in series [2] (paclitaxel 10 mg/kg weekly for three weeks (q3d7), day 40). For the same compound, the “Tumor Regression (number of animals)” value is reported as “no animals had observable regression of tumors” in series [2] (paclitaxel 10 mg/kg single dose (day 0)) and 1 in series [2] (setting [3]). Moreover, the “Duration (days) of tumor regression” value in series [2] (setting [3]) came to 14 days. In addition, the “PR (partial regression, number of animals)” value in series [2] (setting [3]) turned out to be 1. In addition, in series [2] (three weekly treatments with 10 mg/kg paclitaxel), the “animals demonstrating regression of tumors” value was 10%.
